The source made the active and inactive calls. No cut-off for these calls is given here.
Key:
[1] = Displacement of [3H]alpha-BGT from nAChR in Apis mellifera (honeybee) head
[2] = Displacement of [3H]nicotine from nAChR in Sprague-Dawley Rattus norvegicus (rat) whole brain homogenates; type: tissue-based
Apis mellifera = experiment: Displacement of [3H]alpha-BGT from nAChR in Apis mellifera (honeybee) head at 1000 uM
Rattus norvegicus = species on record: Rattus norvegicus; experiment: Displacement of [3H]nicotine from nAChR in Sprague-Dawley Rattus norvegicus (rat) whole brain homogenates at 1000 uM; type: tissue-based
[3] = biological target: Acetylcholine receptor subunit alpha (Torpedo californica) (UniProt P02710); experiment: Displacement of [3H]alpha-BGT from nAChR in Torpedo nobiliana electric organs at 1000 uM; details: Electric organ
Sequence of Acetylcholine receptor subunit alpha (Torpedo californica) (P02710 whole entry): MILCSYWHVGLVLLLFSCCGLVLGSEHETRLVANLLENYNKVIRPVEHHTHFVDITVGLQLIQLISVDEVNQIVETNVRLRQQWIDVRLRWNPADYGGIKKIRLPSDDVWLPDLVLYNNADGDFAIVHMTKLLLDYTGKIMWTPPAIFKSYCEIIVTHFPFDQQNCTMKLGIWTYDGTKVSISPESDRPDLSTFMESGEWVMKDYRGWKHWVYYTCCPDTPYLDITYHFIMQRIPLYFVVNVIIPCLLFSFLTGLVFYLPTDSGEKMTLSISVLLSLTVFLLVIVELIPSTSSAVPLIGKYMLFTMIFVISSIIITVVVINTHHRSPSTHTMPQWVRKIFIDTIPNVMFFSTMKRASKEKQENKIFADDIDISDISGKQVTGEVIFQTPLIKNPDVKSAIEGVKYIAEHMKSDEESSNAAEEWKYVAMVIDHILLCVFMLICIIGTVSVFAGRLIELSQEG

[4] = biological target: Acetylcholine receptor subunit alpha (Torpedo californica) (UniProt P02710); experiment: Increase in [3H]PCP binding to nAChR in Torpedo nobiliana electric organs; details: Electric organ
[5] = biological target: Acetylcholine receptor subunit alpha (Torpedo californica) (UniProt P02710); experiment: Increase in [3H]PCP binding to nAChR in Torpedo nobiliana electric organs in presence of carbachol; details: Electric organ
[6] = biological target: Acetylcholine receptor subunit alpha (Torpedo californica) (UniProt P02710); experiment: Inhibition of [3H]PCP binding to nAChR in Torpedo nobiliana electric organs in presence of carbachol; details: Electric organ
[7] = biological target: Acetylcholine receptor subunit alpha (Torpedo californica) (UniProt P02710); experiment: Displacement of [3H]alpha-BGT from nAChR in Torpedo nobiliana electric organs at 300 uM; details: Electric organ

| SMILES | IC50 [1] [µM] | IC50 [2] [µM] | Activity [4] | Activity [5] | also measured |
| --- | --- | --- | --- | --- | --- |
| c1cncc([C@@H]2CCCCN2)c1 [ANABASINE] | 1.98 | 0.285 |  |  |  |
| C[N+](C)(C)CCOC(N)=O [CARBACHOL] | 90.2 | 0.647 |  |  |  |
| Cn1cccc1-c1cccnc1 [NICOTYRINE] | > 1000 | > 1000 |  |  | inhibition (Apis mellifera): 1.5%; inhibition (Rattus norvegicus): 15.6%; inhibition [3]: 2.55% |
| O=[N+]([O-])C=C1NCCCS1 | 1360 | 109 |  |  |  |
| CN(C)Cc1ccccn1 |  |  | Active | inactive |  |
| C[N+](C)(C)C [TRETRAMETHYLAMMONIUM IODIDE] | 542 |  | Active | inactive |  |
| CCN(Cc1ccc(Cl)nc1)/C(=C/[N+](=O)[O-])NC [NITENPYRAM] | 61.3 |  |  |  |  |
| O=[N+]([O-])/N=C1\NCCN1Cc1ccc(Cl)nc1 [IMIDACLOPRID] | 1.95 | 0.984 | 300% | inactive | inhibition [6]: inactive |
| C/C(=N\C#N)N(C)Cc1ccc(Cl)nc1 [ACETAMIPRID] | 8.83 |  |  |  | inhibition [7]: 12.6% |
| CN(C)Cc1ccncc1 |  |  | Active | inactive |  |
| CN(C)Cc1cccnc1 |  |  | Active | inactive |  |
| CN1CCC[C@H]1c1cccnc1 [NICOTINE] | 1.25 | 0.0096 | Active | inactive |  |

From ChEMBL document CHEMBL3046825, “Molecular Mechanism for Selective Toxicity of Nicotinoids and Neonicotinoids” (J Pestic Sci, 1995)
